Data on five molecules can be found in patent US20140039803A1, “Method for Rapid Identification of Drug Targets and Drug Mechanisms of Action in Human Cells” (THE ROCKEFELLER UNIVERSITY, priority 2011, published 2014).

One assay has as its system HCT-116 cells. Briefly: Spindle phenotype with BI-2536 treatment. The format is cell-based, human.
In another assay the target is PLK2 (Homo sapiens, UniProt Q9NYY3). As to conditions: cited from earlier work.
The test system of another assay is HCT-116 cells (parental). In words: Cell proliferation assay (WST1), LD50. It counts as cell-based, human.
For the next assay, the target named is PLK3 (Homo sapiens, UniProt Q9H4B4). As to conditions: cited from earlier work.
Assay [1] deals with BI-2536-resistant clones of HCT-116 cells. Briefly: Cell proliferation assay (WST1), LD50. The format is cell-based, human.
The test system is the same in assay [2]. Briefly: Spindle phenotype with BI-2536 treatment. It counts as cell-based, human.
Another assay relates to related motor proteins. As to conditions: in vitro; cited from earlier work.
The test system of assay [3] is hTERT-RPE1 cells stably expressing GFP-PSMB5 wild type or mutants. Briefly: Proliferation assay, bortezomib treatment. As to conditions: stable expression of GFP-tagged PSMB5 mutants. It counts as cell-based, human.
Assay [4] deals with bortezomib-resistant clones of HCT-116 cells. As to conditions: for LD50: Table 4, mean ± s.e.m., n = 3.

“And” between values parts separate entries of the source, which are not always exact repeats. Identical values can stand only once. Like-named read-outs stand apart in the source and are kept apart here.

PLK2, sequence (Q9NYY3 whole entry, species assumed): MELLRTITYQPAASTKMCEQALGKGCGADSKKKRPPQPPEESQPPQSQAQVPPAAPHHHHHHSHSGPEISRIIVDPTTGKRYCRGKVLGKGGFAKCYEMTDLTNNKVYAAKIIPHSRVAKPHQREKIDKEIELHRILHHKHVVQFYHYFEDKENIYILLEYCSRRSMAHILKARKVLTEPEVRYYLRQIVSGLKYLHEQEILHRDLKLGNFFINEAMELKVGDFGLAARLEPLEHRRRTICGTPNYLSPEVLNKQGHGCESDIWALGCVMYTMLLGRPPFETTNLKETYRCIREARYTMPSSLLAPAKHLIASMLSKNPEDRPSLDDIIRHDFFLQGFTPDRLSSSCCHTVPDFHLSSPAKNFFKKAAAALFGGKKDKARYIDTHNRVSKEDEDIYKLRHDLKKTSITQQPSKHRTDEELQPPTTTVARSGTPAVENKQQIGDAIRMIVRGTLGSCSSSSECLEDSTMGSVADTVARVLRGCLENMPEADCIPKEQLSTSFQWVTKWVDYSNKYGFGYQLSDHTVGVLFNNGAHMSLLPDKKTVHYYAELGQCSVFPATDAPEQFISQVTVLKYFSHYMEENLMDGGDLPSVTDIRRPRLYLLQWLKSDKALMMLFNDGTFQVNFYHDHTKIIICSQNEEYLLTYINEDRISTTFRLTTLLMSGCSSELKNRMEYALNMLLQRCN
PLK3, sequence (Q9H4B4 whole entry): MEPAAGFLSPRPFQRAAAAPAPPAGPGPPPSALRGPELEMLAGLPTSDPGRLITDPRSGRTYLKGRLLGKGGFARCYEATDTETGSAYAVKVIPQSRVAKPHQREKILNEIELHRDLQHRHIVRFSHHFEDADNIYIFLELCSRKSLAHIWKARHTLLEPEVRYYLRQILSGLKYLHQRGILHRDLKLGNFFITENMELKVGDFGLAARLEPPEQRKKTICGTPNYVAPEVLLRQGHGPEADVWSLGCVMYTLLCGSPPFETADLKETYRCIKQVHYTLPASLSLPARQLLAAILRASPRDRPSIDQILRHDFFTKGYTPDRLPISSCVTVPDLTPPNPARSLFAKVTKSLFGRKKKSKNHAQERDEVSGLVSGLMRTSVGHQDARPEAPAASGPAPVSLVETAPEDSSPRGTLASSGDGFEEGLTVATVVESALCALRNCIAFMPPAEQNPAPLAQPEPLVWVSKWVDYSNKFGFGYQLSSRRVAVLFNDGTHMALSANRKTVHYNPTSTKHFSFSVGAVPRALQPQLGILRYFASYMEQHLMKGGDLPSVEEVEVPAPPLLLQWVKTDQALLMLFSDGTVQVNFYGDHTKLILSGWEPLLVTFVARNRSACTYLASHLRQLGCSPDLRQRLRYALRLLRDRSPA

`CC[C@@H]1C(=O)N(C)c2cnc(Nc3ccc(C(=O)NC4CCN(C)CC4)cc3OC)nc2N1C1CCCC1` [BI-2536]: in the assay with HCT-116 cells, the normal bipolar spindles is 11±3%. In addition, the activity in vitro entry on PLK2 and at PLK3 was “active” each time. Moreover, the LD50 in the assay with HCT-116 cells (parental) (Example 1, Table 1, parental HCT-116, mean ± s.d.) is 3.9 nM and 3.9 ± 1.0 nM; with HCT-116 cells (parental) (Example 2, Table 3, parental HCT-116, n = 3, mean ± s.d.), 3.9 nM and 3.9 ± 2.8 nM; in assay [1] (Example 1, Table 1, clone A, mean ± s.d.), 24.7 ± 5.9 nM; in assay [1] (Example 1, Table 1, clone B, mean ± s.d.), 22.9 ± 5.3 nM; in assay [1] (Example 1, Table 1, clone C, mean ± s.d.), 12.6 ± 2.6 nM; in [1] (Example 1, Table 1, clone D, mean ± s.d.), 27.6 ± 2.4 nM. Moreover, the LD50 in [1] (Example 1, Table 1, clone E, mean ± s.d.) turned out to be 35.9 ± 9.9 nM; in [1] (Example 1, Table 1, clone F, mean ± s.d.) it was 33.4 ± 7.5 nM; in assay [1] (Example 2, Table 3, clone A, n = 3, mean ± s.d.), 34.9 ± 13.0 nM; in [1] (Example 2, Table 3, clone B, n = 3, mean ± s.d.), 33.5 ± 2.6 nM; in [1] (Example 2, Table 3, clone C, n = 3, mean ± s.d.) it was 27.2 ± 8.6 nM; in assay [1] (Example 2, Table 3, clone D, n = 3, mean ± s.d.), 14.2 ± 7.8 nM. Moreover, the LD50 in assay [1] (Example 2, Table 3, clone E, n = 3, mean ± s.d.) turned out to be 21.1 ± 5.7 nM; in assay [1] (Example 2, Table 3, clone F, n = 3, mean ± s.d.), 27.5 ± 13.3 nM. In assay [2] (BI-2536 treatment, drug-resistant clone B), this molecule came in with a bipolar spindles of 46±4%. Further, the “reduction in bipolar spindles associated with BI-2536 treatment” value in assay [2] (Example 1: clones A, B and C) is recorded as “suppressed”.
`c1ccc(C2(c3nc(-c4ccncc4)cs3)CC2)cc1` [PCTP, 4-(2-(1-phenylcyclopropyl)thiazol-4-yl)pyridine]: the “selectivity over related motor proteins” value in the assay with related motor proteins is listed as “inhibit other related motor proteins”.
As for `N[C@@H](CSC(c1ccccc1)(c1ccccc1)c1ccccc1)C(=O)O` [STLC, S-trityl-L-cysteine], in the assay on related motor proteins, the “selectivity over related motor proteins” value is given as “selective”.
As to `CC(C)C[C@H](NC(=O)[C@H](Cc1ccccc1)NC(=O)c1cnccn1)B(O)O` [bortezomib], the “effect of expression of PSMB5 M104V or A108T on bortezomib sensitivity” value in assay [3] was “suppressed bortezomib sensitivity”. Besides, the LD50 is given as 6.3 ± 0.9 nM with HCT-116 cells (parental) (Example 3, Table 4, parental HCT-116, mean ± s.e.m., n = 3); 6.3±0.9 nm in the assay on HCT-116 cells (parental) (HCT-116 cells, text of Example 3); 19.4 ± 6.7 nM in assay [4] (clone A); 15.3 ± 6.2 nM in assay [4] (clone B); 17.8 ± 6.0 nM in [4] (clone C); 17.2 ± 5.4 nM in assay [4] (clone D). The LD50 in assay [4] (clone E) came to 41.5 ± 9.5 nM. For the same molecule, the “LD50 of resistant clones relative to parental cell line” value in assay [4] (five clones with reduced bortezomib sensitivity, fold higher) is reported as 2.4-6.5 fold.
Turning to `CC(=O)O[C@H]1C(=O)[C@@]2(C)[C@H]([C@H](OC(=O)c3ccccc3)[C@]3(O)C[C@H](OC(=O)[C@H](O)[C@@H](NC(=O)c4ccccc4)c4ccccc4)C(C)=C1C3(C)C)[C@]1(OC(C)=O)CO[C@@H]1C[C@@H]2O` [taxol], the “sensitivity of clones compared with parental cell line” value in assay [1] (Example 1: clones A, B and C) is listed as “less sensitive than the parental cell line”; in assay [1] (Example 2: clones D, E and F, 20 nM (FIG. 11)), “less sensitive than the parental cell line”.
